Strand notation (5' to 3'): a small letter for the sugar, then the base; units joined by * are phosphorothioate-linked, units joined directly phosphodiester-linked; [ ] holds rarer units or linkages, { } end groups; capitals alone tell only the bases. e = 2'-O-(2-methoxyethyl) (MOE); k = constrained ethyl (cEt); [5mC] = 5-methylcytosine; d = 2'-deoxy (DNA); m = 2'-O-methyl

In one data set the test system is Yap1 mRNA. Nature of the data set: Antisense inhibition of human Yap1 in SNU-449 cells by modified oligonucleotides, single dose (Example 5, RTS36584). The data set is classed as cell-based. Particulars: Table 39; SNU-449 cells, 10,000 cells per well, free uptake, 2,000 nM oligonucleotide, approx. 48 hours; RTS36584; normalized to RIBOGREEN; Yap1 mRNA relative to untreated control. In a few lines: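 Values are Yap1 mRNA as percent of untreated control cells, measured by quantitative real-time RT-PCR using RTS36584 and normalised to total RNA by RIBOGREEN. Cells were SNU-449, dosed by free uptake at 2,000 nM for approximately 48 hours.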
As to “1198424 (k[5mC]*dT*d[5mC]*dT*dT*dA*dT*dA*dT*dG*dG*kT*eT*kT*eT*kG; antisense) [Compound 1198424]”, the “YAP1 (% UTC)” value worked out at 15 % UTC.

As for “1198420 (kA*dT*dA*dT*dG*dG*dT*dT*dT*dT*dG*kT*eG*kT*eG*kT; antisense) [Compound 1198420]”, the “YAP1 (% UTC)” value turned out to be 41 % UTC.

On to “1198451 (k[5mC]*dT*dA*dA*dG*dT*dA*dA*dG*dG*dT*kT*eT*k[5mC]*e[5mC]*k[5mC]; antisense) [Compound 1198451]”, for which the “YAP1 (% UTC)” value amounted to 48 % UTC.

Regarding “1198400 (kA*dA*dG*d[5mC]*dA*d[5mC]*dT*dT*dT*dT*dA*k[5mC]*eA*kT*eT*kA; antisense) [Compound 1198400]”, the “YAP1 (% UTC)” value was 62 % UTC.

On to “1198413 (kT*dT*dT*dA*dG*dG*dA*dT*dG*d[5mC]*dA*kT*eG*kG*eT*kT) [Compound 1198413]”, for which the “YAP1 (% UTC)” value came to 29 % UTC.

Staying with this data set, now noted: Table 40 (separate experiment); SNU-449 cells, 10,000 cells per well, free uptake, 2,000 nM oligonucleotide, approx. 48 hours; RTS36584; normalized to RIBOGREEN; Yap1 mRNA relative to untreated control.
“1198765 (k[5mC]*eA*kG*dA*dT*dT*dT*dA*dG*dG*dA*dT*eG*e[5mC]*kA*kT) [Compound 1198765]”: the “YAP1 (% UTC)” value is 23 % UTC.

Consider “1198778 (kA*eT*kA*dT*dT*dG*d[5mC]*dA*dA*dT*d[5mC]*dT*eG*eT*k[5mC]*kT; antisense) [Compound 1198778]”, for which the “YAP1 (% UTC)” value is reported as 55 % UTC.

In the case of “1198441 (kA*dA*dA*dG*dT*dG*dT*dA*dT*dG*dT*k[5mC]*eA*kG*eA*kA; antisense) [Compound 1198441]”, the “YAP1 (% UTC)” value is 19 % UTC.

As for “1198780 (antisense kT*eA*kA*dT*dA*dT*dT*dG*d[5mC]*dA*dA*dT*e[5mC]*eT*kG*kT) [Compound 1198780]”, the “YAP1 (% UTC)” value is 80 % UTC.

The data set is the same for the next values; noted with them: Table 41; SNU-449 cells, 10,000 cells per well, free uptake, 2,000 nM modified oligonucleotide, approximately 48 hours; RTS36584; normalized to RIBOGREEN; Yap1 mRNA relative to untreated control cells.
Take “1198657 (kA*kG*d[5mC]*dA*d[5mC]*dT*dT*dT*dT*dA*d[5mC]*dA*kT*eT*kA*eG; antisense) [Compound 1198657]”: the “YAP1 (% UTC)” value came to 95 % UTC.

“1198671 (antisense kT*kT*dT*dA*dG*dG*dA*dT*dG*d[5mC]*dA*dT*kG*eG*kT*eT) [Compound 1198671]”: the “YAP1 (% UTC)” value is reported as 26 % UTC.

Staying with this data set, now noted: Table 42 (separate experiment); SNU-449 cells, 10,000 cells per well, free uptake, 2,000 nM modified oligonucleotide, approximately 48 hours; RTS36584; normalized to RIBOGREEN; Yap1 mRNA relative to untreated control cells.
On to “1198709 (k[5mC]*kT*dA*dA*dG*dT*dA*dA*dG*dG*dT*dT*kT*e[5mC]*k[5mC]*e[5mC]; antisense) [Compound 1198709]”, for which the “YAP1 (% UTC)” value was 29 % UTC.

With “1095481 (antisense kT*kG*dA*dG*dG*dT*dA*dT*dA*dA*d[5mC]*dT*kG*eG*kG*e[5mC]) [Compound 1095481]”, the “YAP1 (% UTC)” value amounted to 21 % UTC.

For the substance “1198198 (kT*kG*dT*d[5mC]*dT*d[5mC]*dA*dT*dG*d[5mC]*d[5mC]*eT*eT*eA*kT*kA; antisense) [Compound 1198198]”, the “YAP1 (% UTC)” value was 29 % UTC.

For “1198693 (antisense kA*kT*dG*dT*dA*dA*dT*dA*dT*dT*dG*d[5mC]*kA*eA*kT*e[5mC]) [Compound 1198693]”, the “YAP1 (% UTC)” value came out at 92 % UTC.

Staying with this data set, now noted: Table 43 experiment; SNU-449 cells, 10,000 cells per well, free uptake, 2,000 nM, approximately 48 hours; RTS36584; Yap1 mRNA normalized to RIBOGREEN, relative to untreated control cells.
Turning to “1198220 (kA*kA*d[5mC]*dA*d[5mC]*dT*dG*dA*dG*dG*dT*eA*eT*eA*kA*k[5mC]; antisense) [Compound 1198220]”, the “YAP1 (% UTC)” value is on record as 89 % UTC.

In the case of “1198276 (kA*kG*dT*dA*dA*dG*dG*dT*dT*dT*d[5mC]*e[5mC]*e[5mC]*eA*kG*kA; antisense) [Compound 1198276]”, the “YAP1 (% UTC)” value turned out to be 52 % UTC.

On to “1198252 (k[5mC]*kT*d[5mC]*dT*dT*dA*dT*dA*dT*dG*dG*eT*eT*eT*kT*kG; antisense) [Compound 1198252]”, for which the “YAP1 (% UTC)” value worked out at 26 % UTC.

On to “1198217 (kG*kG*dT*dA*dT*dA*dA*d[5mC]*dT*dG*dG*eG*e[5mC]*eA*kA*kA; antisense) [Compound 1198217]”, for which the “YAP1 (% UTC)” value is 57 % UTC.

As for “1198462 (antisense kT*kG*dG*dA*dA*dA*dT*dT*dG*dT*d[5mC]*eT*k[5mC]*eA*kT*eG) [Compound 1198462]”, the “YAP1 (% UTC)” value came to 27 % UTC.

Take “1198485 (antisense kA*kG*d[5mC]*dA*d[5mC]*dT*dT*dT*dT*dA*d[5mC]*eA*kT*eT*kA*eG) [Compound 1198485]”: the “YAP1 (% UTC)” value turned out to be 64 % UTC.

The same data set, now with this note: Table 44 experiment; SNU-449 cells, 10,000 cells per well, free uptake, 2,000 nM, approximately 48 hours; RTS36584; Yap1 mRNA normalized to RIBOGREEN, relative to untreated control cells.
Consider “1198476 (antisense kA*kG*dG*dT*dA*dT*dA*dA*d[5mC]*dT*dG*eG*kG*e[5mC]*kA*eA) [Compound 1198476]”, for which the “YAP1 (% UTC)” value amounted to 31 % UTC.

“1198531 (k[5mC]*kT*dT*dT*dA*dA*dA*dG*dT*dG*dT*eA*kT*eG*kT*e[5mC]; antisense) [Compound 1198531]”: the “YAP1 (% UTC)” value was 21 % UTC.

For “1198518 (kT*kA*dA*dT*dA*dT*dT*dG*d[5mC]*dA*dA*eT*k[5mC]*eT*kG*eT; antisense) [Compound 1198518]”, the “YAP1 (% UTC)” value came out at 71 % UTC.

Consider “1095623 (antisense k[5mC]*kA*d[5mC]*dT*dG*dA*dG*dG*dT*dA*dT*eA*kA*e[5mC]*kT*eG) [Compound 1095623]”, for which the “YAP1 (% UTC)” value is given as 57 % UTC.

Take “1198474 (antisense kT*kA*dT*dA*dA*d[5mC]*dT*dG*dG*dG*d[5mC]*eA*kA*eA*kT*eT) [Compound 1198474]”: the “YAP1 (% UTC)” value is given as 68 % UTC.

Staying with this data set, now noted: Table 45; Yap1 mRNA as percent of untreated control, SNU-449 cells, single dose.
For the substance “1198944 (k[5mC]*kT*d[5mC]*dT*dT*dA*dT*dA*dT*dG*dG*kT*dT*kT*dT*kG; antisense) [Compound 1198944]”, the “YAP1 (% UTC)” value is given as 34 % UTC.

For the substance “1095509 (antisense kT*kG*dA*dG*dG*dT*dA*dT*dA*dA*d[5mC]*kT*dG*kG*dG*k[5mC]) [Compound 1095509]”, the “YAP1 (% UTC)” value was determined as 29 % UTC.

Turning to “1198947 (k[5mC]*kA*dA*d[5mC]*dT*d[5mC]*dT*dT*dA*dT*dA*kT*dG*kG*dT*kT; antisense) [Compound 1198947]”, the “YAP1 (% UTC)” value came out at 88 % UTC.

“1198898 (kA*kT*dA*dT*dG*dG*dA*dA*dA*dT*dT*kG*dT*k[5mC]*dT*k[5mC]; antisense) [Compound 1198898]”: the “YAP1 (% UTC)” value turned out to be 53 % UTC.

“1198968 (kA*kG*dT*dA*dA*dG*dG*dT*dT*dT*d[5mC]*k[5mC]*d[5mC]*kA*dG*kA; antisense) [Compound 1198968]”: the “YAP1 (% UTC)” value is reported as 57 % UTC.

With “1198897 (kA*kT*dG*dG*dA*dA*dA*dT*dT*dG*dT*k[5mC]*dT*k[5mC]*dA*kT; antisense) [Compound 1198897]”, the “YAP1 (% UTC)” value was found to be 61 % UTC.

The same data set, now with this note: Table 46; Yap1 mRNA as percent of untreated control, SNU-449 cells, single dose.
With “1198868 (kT*kG*dT*dA*dA*dT*dA*dT*dT*dG*d[5mC]*kA*eA*kT*e[5mC]*kT; antisense) [Compound 1198868]”, the “YAP1 (% UT)” value worked out at 49 % UT.

The data set is the same for the next values; noted with them: Table 48; Yap1 mRNA level relative to untreated control; modified oligonucleotides targeting SEQ ID NO.: 1 and 2.
“1197200 (antisense kT*kT*kA*dT*dA*dT*dG*dG*dT*dT*dT*dT*dG*kT*kG*kT) [Compound 1197200]”: the “YAP1 (% UT)” value was found to be 49 % UT.

As to “1198324 (kA*kT*kA*dG*dT*dG*d[5mC]*dT*dT*dT*dG*dG*kA*eA*kG*eA; antisense) [Compound 1198324]”, the “YAP1 (% UT)” value worked out at 53 % UT.

As for “1198314 (kA*kA*kG*d[5mC]*dA*d[5mC]*dT*dT*dT*dT*dA*d[5mC]*kA*eT*kT*eA; antisense) [Compound 1198314]”, the “YAP1 (% UT)” value amounted to 82 % UT.

The data set is the same for the next values; noted with them: Table 49; Yap1 mRNA level relative to untreated control; modified oligonucleotides targeting SEQ ID NO.: 1 and 2.
As to “1198572 (antisense kA*kA*kG*d[5mC]*dA*d[5mC]*dT*dT*dT*dT*dA*d[5mC]*kA*kT*kT*eA) [Compound 1198572]”, the “YAP1 (% UT)” value worked out at 53 % UT.

As to “1198581 (antisense kA*kG*kT*dG*d[5mC]*dT*dT*dT*dG*dG*dA*dA*kG*kA*kT*e[5mC]) [Compound 1198581]”, the “YAP1 (% UT)” value came to 42 % UT.

For “1198547 (antisense kG*kG*kA*dA*dA*dT*dT*dG*dT*d[5mC]*dT*d[5mC]*kA*kT*kG*e[5mC]) [Compound 1198547]”, the “YAP1 (% UT)” value turned out to be 27 % UT.

“1198355 (kA*kA*kA*dG*dT*dG*dT*dA*dT*dG*dT*d[5mC]*kA*eG*kA*eA; antisense) [Compound 1198355]”: the “YAP1 (% UT)” value amounted to 6 % UT.

Consider “1198306 (kA*kA*k[5mC]*dA*d[5mC]*dT*dG*dA*dG*dG*dT*dA*kT*eA*kA*e[5mC]; antisense) [Compound 1198306]”, for which the “YAP1 (% UT)” value amounted to 64 % UT.

The same data set, now with this note: Table 50; Yap1 mRNA remaining as percent of untreated control (UT), SNU-449 cells, single dose.
As for “1197245 (antisense kT*kT*kT*dT*mA*d[5mC]*dA*dT*dT*dA*dG*dG*dA*kA*k[5mC]*kA) [Compound 1197245]”, the “YAP1 (% UT)” value was determined as 60 % UT.

On to “1198621 (kA*kA*kG*dT*dA*dA*dG*dG*dT*dT*dT*d[5mC]*k[5mC]*k[5mC]*kA*eG; antisense) [Compound 1198621]”, for which the “YAP1 (% UT)” value was found to be 80 % UT.

Staying with this data set, now noted: Table 52; Yap1 mRNA, modified oligonucleotides targeting SEQ ID NO: 1 and 2.
Turning to “1200828 (kA*kT*kA*dG*dT*mG*d[5mC]*dT*dT*dT*dG*dG*dA*kA*kG*kA; antisense) [Compound 1200828]”, the “YAP1 (% UT)” value is on record as 54 % UT.

The data set is the same for the next values; noted with them: Yap1 mRNA, percent of untreated control; modified oligonucleotides targeting SEQ ID NO: 1 and 2; Table 47.
For “1197206 (antisense kA*kT*kA*dT*dT*dG*d[5mC]*dA*dA*dT*d[5mC]*dT*dG*kT*k[5mC]*kT) [Compound 1197206]”, the “YAP1 (% UT)” value came out at 63 % UT.

The values are drawn from patent US11214803B2, “Modulators of YAP1 expression” (Ionis Pharmaceuticals, Inc., priority 2019, dated 2022).
